Numbers after ± are expanded uncertainties.
Assay: mn = molality of the nth substance listed, in mol/kg
Details: 100 kPa, Liquid; for speed of sound: Frequency=3 MHz, Sing-around technique in a fixed-path interferometer; for mass density: Vibrating tube method

C[N+](C)(C)CC(=O)O.[Cl-] [betaine hydrochloride] + O
speed of sound (293.15 K, m1 = 0.00988): 1483.8 ± 1.6 m/s
speed of sound (293.15 K, m1 = 0.02034): 1484.8 ± 1.6 m/s
speed of sound (293.15 K, m1 = 0.03199): 1486 ± 1.6 m/s
speed of sound (293.15 K, m1 = 0.03929): 1486.6 ± 1.6 m/s
speed of sound (293.15 K, m1 = 0.04992): 1487.6 ± 1.6 m/s
speed of sound (293.15 K, m1 = 0.05925): 1488.4 ± 1.6 m/s
mass density (293.15 K, m1 = 0.00988): 998.597 ± 0.26 kg/m3
mass density (293.15 K, m1 = 0.02034): 998.988 ± 0.26 kg/m3
mass density (293.15 K, m1 = 0.03199): 999.418 ± 0.26 kg/m3
mass density (293.15 K, m1 = 0.03929): 999.672 ± 0.26 kg/m3
mass density (293.15 K, m1 = 0.04992): 1000.05 ± 0.26 kg/m3
mass density (293.15 K, m1 = 0.05925): 1000.37 ± 0.26 kg/m3
speed of sound (298.15 K, m1 = 0.00988): 1497.7 ± 1.6 m/s
speed of sound (298.15 K, m1 = 0.02034): 1498.7 ± 1.6 m/s
speed of sound (298.15 K, m1 = 0.03199): 1499.8 ± 1.6 m/s
speed of sound (298.15 K, m1 = 0.03929): 1500.5 ± 1.6 m/s
speed of sound (298.15 K, m1 = 0.04992): 1501.3 ± 1.6 m/s
speed of sound (298.15 K, m1 = 0.05925): 1502.3 ± 1.6 m/s
mass density (298.15 K, m1 = 0.00988): 997.445 ± 0.26 kg/m3
mass density (298.15 K, m1 = 0.02034): 997.829 ± 0.26 kg/m3
mass density (298.15 K, m1 = 0.03199): 998.253 ± 0.26 kg/m3
mass density (298.15 K, m1 = 0.03929): 998.509 ± 0.26 kg/m3
mass density (298.15 K, m1 = 0.04992): 998.883 ± 0.26 kg/m3
mass density (298.15 K, m1 = 0.05925): 999.196 ± 0.26 kg/m3
speed of sound (303.15 K, m1 = 0.00988): 1510 ± 1.6 m/s
speed of sound (303.15 K, m1 = 0.02034): 1511 ± 1.6 m/s
speed of sound (303.15 K, m1 = 0.03199): 1512.1 ± 1.6 m/s
speed of sound (303.15 K, m1 = 0.03929): 1512.8 ± 1.6 m/s
speed of sound (303.15 K, m1 = 0.04992): 1513.6 ± 1.6 m/s
speed of sound (303.15 K, m1 = 0.05925): 1514.2 ± 1.6 m/s
mass density (303.15 K, m1 = 0.00988): 996.042 ± 0.26 kg/m3
mass density (303.15 K, m1 = 0.02034): 996.428 ± 0.26 kg/m3
mass density (303.15 K, m1 = 0.03199): 996.847 ± 0.26 kg/m3
mass density (303.15 K, m1 = 0.03929): 997.099 ± 0.26 kg/m3
mass density (303.15 K, m1 = 0.04992): 997.471 ± 0.26 kg/m3
mass density (303.15 K, m1 = 0.05925): 997.795 ± 0.26 kg/m3
speed of sound (308.15 K, m1 = 0.00988): 1520.7 ± 1.6 m/s
speed of sound (308.15 K, m1 = 0.02034): 1521.7 ± 1.6 m/s
speed of sound (308.15 K, m1 = 0.03199): 1522.8 ± 1.6 m/s
speed of sound (308.15 K, m1 = 0.03929): 1523.5 ± 1.6 m/s
speed of sound (308.15 K, m1 = 0.04992): 1524.4 ± 1.6 m/s
speed of sound (308.15 K, m1 = 0.05925): 1525.1 ± 1.6 m/s
mass density (308.15 K, m1 = 0.00988): 994.425 ± 0.26 kg/m3
mass density (308.15 K, m1 = 0.02034): 994.806 ± 0.26 kg/m3
mass density (308.15 K, m1 = 0.03199): 995.225 ± 0.26 kg/m3
mass density (308.15 K, m1 = 0.03929): 995.477 ± 0.26 kg/m3
mass density (308.15 K, m1 = 0.04992): 995.846 ± 0.26 kg/m3
mass density (308.15 K, m1 = 0.05925): 996.165 ± 0.26 kg/m3
speed of sound (313.15 K, m1 = 0.00988): 1529.8 ± 1.6 m/s
speed of sound (313.15 K, m1 = 0.02034): 1530.7 ± 1.6 m/s
speed of sound (313.15 K, m1 = 0.03199): 1531.8 ± 1.6 m/s
speed of sound (313.15 K, m1 = 0.03929): 1532.4 ± 1.6 m/s
speed of sound (313.15 K, m1 = 0.04992): 1533.3 ± 1.6 m/s
speed of sound (313.15 K, m1 = 0.05925): 1534.1 ± 1.6 m/s
mass density (313.15 K, m1 = 0.00988): 992.605 ± 0.26 kg/m3
mass density (313.15 K, m1 = 0.02034): 992.98 ± 0.26 kg/m3
mass density (313.15 K, m1 = 0.03199): 993.389 ± 0.26 kg/m3
mass density (313.15 K, m1 = 0.03929): 993.638 ± 0.26 kg/m3
mass density (313.15 K, m1 = 0.04992): 993.998 ± 0.26 kg/m3
mass density (313.15 K, m1 = 0.05925): 994.316 ± 0.26 kg/m3

Reference: the NIST ThermoML archive (doi:10.1016/j.jct.2014.05.015)
